# Experimental data published in US11007183B2, “Cancer treatments using combinations of PI3K/Akt pathway and ERK inhibitors” (BIOMED VALLEY DISCOVERIES, INC., priority 2013, dated 2021).
# pIC50: −log10 of the molar value. Entries after “also recorded” stand apart in the source; their conditions may differ.
# How the values were obtained:
# [1] = test system: MAPK signaling in A375 cells; assay: Western blot of MAPK signaling, cell cycle and apoptosis markers; assay type: cell-based, human
# Procedure: For Western blot studies, HCT116 cells (5×10^6) were seeded into 10 cm dishes in McCoy's 5A plus 10% FBS. A375 cells (2.5×10^6) were seeded into 10 cm dishes in DMEM plus 10% FBS. Cells were allowed to adhere overnight prior to addition of the indicated amount of test compound (BVD-523) or vehicle control. Cells were treated for either 4 or 24 hours before isolation of whole-cell protein lysates, as specified below. Cells were harvested by trypsinisation, pelleted and snap frozen. Lysates were prepared with RIPA (Radio-Immunoprecipitation Assay) buffer, clarified by centrifugation and quantitated by bicinchoninic acid assay (BCA) assay. 20-50 μg of protein was resolved by SDS-PAGE electrophoresis, blotted onto PVDF membrane and probed using the antibodies detailed in Table 9 (for the 4-hour treatment) and Table 10 (for the 24-hour treatment) below.
# [2] = Toxicity (body weight, deaths, clinical signs) in the HCT116 xenograft study; assay type: in vivo, mice; conditions: for Deaths NTR / Deaths TR: po, 45 days
# Procedure: Animals were weighed daily on Days 1-5, then twice per week until completion of the study. The mice were observed frequently for overt signs of any adverse, TR side effects, and clinical signs were recorded when observed. Individual BW loss was monitored as per protocol, and any animal whose weight exceeded the limits for acceptable BW loss was euthanized. Group mean BW loss also was monitored as per protocol. Dosing was to be suspended in any group that exceeded the limits for acceptable mean BW loss. If mean BW recovered, then dosing was to be resumed in that group, but at a lower dosage or less frequent dosing schedule. Acceptable toxicity for the maximum tolerated dose (MTD) was defined as a group mean BW loss of less than 20% during the study and not more than 10% TR deaths. A death was classified as TR if attributable to treatment side effects as evidenced by clinical signs and/or necropsy, or may also be classified as TR if due to unknown causes during the dosing period or within 14 days of the last dose. A death was classified as NTR if there was no evidence that death was related to treatment side effects. NTR deaths may be further characterized based on cause of death. A death was classified as NTRa if it resulted from an accident or human error. […] A death was classified as NTRu if the cause of death was unknown and there was no available evidence of death related to treatment side effects, metastasis, accident or human error, although death due to treatment side effects cannot be excluded.
# parental HCT116 cells = assay: Combination proliferation assay (Loewe/Bliss); assay type: cell-based; conditions: Homo sapiens, HCT-116, 2.5% serum, mean of n=4 separate combinations, read-out: IC50 (single agent, derived from combination assay plates)
# Procedure: Cells were seeded into triplicate 96-well plates at the densities indicated in Table 11 in McCoy's 5A media containing 2.5% FBS and allowed to adhere overnight prior to addition of test compound or vehicle control. Combinations were tested using either a 10×8 or for the follow-up HCT116 study a 3×1 dose matrix.
# Test compounds were incubated with the cells for 72 h at 37° C., 5% CO2 in a humidified atmosphere. CellTiter-Glo® reagent (Promega, Madison, Wis.) was added according to manufacturer's instructions and luminescence detected using the BMG FLUOstar plate reader (BMG Labtech, Ortenberg, Germany). The average media only background value was deducted and the data analysed.
# For the 10×8 combination assays the combination interactions across the dose matrix were determined by the Loewe Additivity and Bliss independence models using Chalice™ Combination Analysis Software (Horizon Discovery Group, Cambridge, Mass.) as outlined in the user manual (available at chalice.horizondiscovery.com/chalice-portal/documentation/analyzer/home.jsp). Synergy is determined by comparing the experimentally observed level of inhibition at each combination point with the value expected for additivity, which is derived from the single-agent responses along the edges of the matrix. […]
# [3] = A375, prolonged (24 hours) treatment
structure (smiles),measurement,setting,value
CC(C)Nc1cc(-c2c[nH]c(C(=O)N[C@H](CO)c3cccc(Cl)c3)c2)c(Cl)cn1 [BVD-523],cyclin-D1 protein level,[1]; 24 hours (prolonged) treatment,greatly reduced
same,MAPK feedback phosphatase DUSP6 protein level,"[1]; 24 hours (prolonged) treatment, BRAF mutant cells",greatly reduced
same,Apoptosis / PARP cleavage,[1]; [3],PARP protein cleavage and increased apoptosis were not noted; also recorded: increased apoptosis was not observed
same,Bim-EL level,[1]; [3],increased
same,Phosphorylation of ERK-dependent residues (T359/S363) in RSK 1 and 2,"[1]; A375 BRAF mutant cell line, 4 hours, micromolar concentrations",reduced
same,Concentrations required to induce changes in substrate phosphorylation and effector targets of ERK kinases,"[1]; RAF and RAS mutant cancer cells in-vitro, acute and prolonged treatment",low micromolar range
same,Cellular ERK enzyme activity,[1]; acute or prolonged treatment,fully inhibited
same,Tolerability relative to the MTD,"[2]; Group 5: BVD-523 100 mg/kg p.o. bid to end, 100 mg/kg",above the MTD; also recorded: above the maximum tolerated dose
same,Adverse clinical signs,"[2]; mouse, in vivo, 50 mg/kg",no noteworthy adverse clinical signs
same,Deaths NTR,"[2]; mouse, in vivo, 50 mg/kg",0
same,Deaths TR,"[2]; mouse, in vivo, 50 mg/kg",0
same,Deaths NTR,"[2]; mouse, in vivo, 100 mg/kg",0
same,Deaths TR,"[2]; mouse, in vivo, 100 mg/kg",4
same,pIC50,parental HCT116 cells,6.89
